Assay results from patent US10350240B2, “Lanthanum carbonate hydroxide, lanthanum oxycarbonate and methods of their manufacture and use” (Spectrum Pharmaceuticals, Inc., priority 2010, dated 2019).

Key:
[1] = Phosphate binding at buffered pH 4.5 in dissolution unit, ICP-OES (% reaction completion); settings: Renazorb-014 (LDOC), second block; 4.5 pH @30 min
Source text: For each run, both the Renazorb-013 (LCH) and the Renazorb-014 (LDOC) were characterized. Renazorb-013 is important to characterize because its features (particularly physical features such as BET-Surface-Area, Particle Size Distribution, crystalline phase by XRD, bulk density) strongly impact the same critical features of Renazorb-014. The typical characterization suite of Renazorb-013 and Renazorb-014 includes BET-Surface-Area (BET-SA), Particle Size Distribution (PSD), crystalline phase by XRD, bulk density, chloride content, lanthanum content, carbon content. On top of this Renazorb-014 is tested for phosphate binding performance (4.5 pH @30 min). Assays such as La, C, Cl are typically fairly consistent and not under scrutiny.
The following procedure may be used to determine the phosphate binding kinetics/capacity in solutions at a buffered pH=4.5 for lanthanum dioxycarbonate.
Briefly, a heated, acetate buffered acidic solution, adjusted to a known pH and containing a known amount of phosphate is stirred constantly throughout the test in a dissolution unit. To this stirred solution is added a known amount of lanthanum compound at time=0. […] All samples are diluted in the proper matrix and analyzed for phosphorus using an Inductively Coupled Plasma instrument equipped with an Optical Emission spectrophotometer detector (ICP-OES). […]

BET surface area = type: physicochemical; settings: Renazorb-014 (LDOC), second block
Source text: By “relatively greater” it is meant that if the processes of the '782 patent and those of the present invention were run under generally identical conditions but with, for example, ammonium carbonate or bicarbonate used instead of sodium carbonate, the surface area, as measured by BET or otherwise, of the LCH or lanthanum oxycarbonates of the present invention would be even higher than that resulting from the practice of the '782 patent. The ammonium carbonate process of the present invention should yield BET surface areas (SA) in the 1 to 100 m^2/g range for LCH. […] To this end, as used herein “relatively greater BET surface area” refers to the greater BET surface area of the LDOC compound of the present invention when compared to the respective compound in U.S. Pat. No. 7,588,782 when made using similar ingredients, and under similar conditions but using the process described in that patent. As noted above, both processes are capable of producing very fine particles/high surface area. Again without wishing to be bound by any particular theory of operation, it may be that the greater porosity of the materials resulting from the present invention may effectively increase the overall surface area (or more reactive surfaces) allowing for, inter alia, improved binding kinetics. This is predicated on the porosity of individual or primary particles, not aggregates. Thus, it is believed that the primary particles of the invention provide relatively greater porosity than would be measured for particles made in accordance with the '782 patent. […] Furthermore, “porosity” as used herein means cumulative adsorption pore volume determined using a static pressure surface area analyzer with nitrogen as the adsorbate and calculating the pore size by The Barrett, Joyner, and Halenda (BJH) method (Barrett E. P., Loyner L. G. and Halenda P. P., The determination of pore volume and area distributions in porous substances. I. Computations from nitrogen isotherms, J. Am. Chem. Soc. 73 (1951) pp. 373-380).
As contemplated herein, BET surface area of the lanthanum compounds disclosed herein may be determined as provided in U.S. Pat. No. 7,588,782.

[2] = Laser particle size (Coulter LS230), aggregate D10/D50/D90 by volume; type: physicochemical; settings: Renazorb-014 (LDOC), second block
Source text: Aggregate size as described herein is either determined by scanning electron microscopy (SEM) or laser diffraction on a Coulter LS230. […] But these appear more aggregated.
Laser particle size data can be produced using, for example, a LS230 Laser Particle Size Analyzer manufactured by Coulter.
Average the runs using the LS230 software and have the software calculate the desired volume D results (i.e. for D1, D10, D50, D90, and D99).
The Refractive Index (RI) of a solid is required to perform an accurate laser PSD analysis for particles under 1 μm. The RI of the test materials were not listed in literature at the time this method was developed. […] Therefore an RI of 2.1 was chosen.

Bulk density = type: physicochemical; settings: Renazorb-014 (LDOC), second block
Procedure: Bulk density in accordance with the invention can be determined by standard methods.
Graduated Cylinder Tare Weight was determined to be 225 g. 75 grams of sample was sieved into the graduated cylinder. The Gross Weight was determined to be 299.4 g. The volume of this sample was measured to be 141 mL. Thus, the Bulk Density of the powder is: Bulk Density (g/cc)=(299.4−225)/141=74.4/141=0.5277 g/cc Rounding this value to two decimal places gives a final reported value of 0.53 g/cc. 9.2 RSD=(R1−R2)×100/R1 where: RSD=Relative Standard Deviation (%) R1 & R2=Result of individual repeat (g/cc) 9.3 SR=R×100/V where: SR=Standard Recovery (%) R=Result for Reference Standard (g/cc) V=Historical average for standard (g/cc)

O=C([O-])[O-].[La+3].[La+3].[O-2].[O-2] [Batch 110508, lanthanum dioxycarbonate]
Po4 binding @4.5 pH (rxn comp. %) [1]: 92%
Surface Area (BET surface area): 16.7 m^2/g
D10 Sonicated SOP-QC-GMP-2402 [2]: 6.6 um
D50 Sonicated SOP-QC-GMP-2402 [2]: 50 um
D90 Sonicated SOP-QC-GMP-2402 [2]: 151 um
Bulk Density (Bulk density): 0.56 g/cc
